Test results from the NIST ThermoML archive (doi:10.1016/j.jct.2012.01.008).

Experiment: xn = mol fraction of the nth substance listed
Conditions: Liquid, Vibrating tube method

CCC[N+]1(C)CCCCC1.O=S(=O)([N-]S(=O)(=O)C(F)(F)F)C(F)(F)F + COc1ccccc1
mass density [kg/m3]
Conditions	100 kPa	10000 kPa	15000 kPa	20000 kPa	25000 kPa	30000 kPa	35000 kPa	40000 kPa	45000 kPa	50000 kPa
298.15 K, x2 = 0.1015	1393.9	1400.6	1403.7	1406.9	1409.8	1412.7	1415.3	1418.1	1420.9	1423.5
298.15 K, x2 = 0.201	1376.9	1383.6	1386.7	1389.9	1392.8	1395.6	1398.2	1401	1403.8	1406.4
298.15 K, x2 = 0.3001	1356.9	1363.7	1366.6	1369.8	1372.7	1375.6	1378.4	1381.2	1383.9	1386.5
298.15 K, x2 = 0.4102	1330.3	1337.1	1340.2	1343.3	1346.2	1349.1	1351.9	1354.7	1357.6	1360.2
298.15 K, x2 = 0.5003	1304.5	1311.4	1314.4	1317.5	1320.4	1323.3	1326.2	1329.1	1331.9	1334.5
298.15 K, x2 = 0.6003	1269.5	1276.3	1279.4	1282.6	1285.5	1288.4	1291.3	1294	1296.7	1299.3
298.15 K, x2 = 0.7003	1225.7	1232.4	1235.5	1238.6	1241.5	1244.4	1247.3	1250.1	1252.8	1255.3
298.15 K, x2 = 0.8	1169.1	1175.8	1178.9	1182	1184.8	1187.7	1190.6	1193.3	1196.1	1198.6
298.15 K, x2 = 0.9	1093.1	1099.7	1102.6	1105.7	1108.4	1111.3	1114.1	1117	1119.8	1122.2
318.15 K, x2 = 0.1015	1377.3	1384.1	1387.6	1390.6	1393.7	1396.8	1399.9	1402.8	1405.7	1408.4
318.15 K, x2 = 0.201	1360	1366.8	1370.3	1373.3	1376.4	1379.5	1382.6	1385.4	1388.3	1391
318.15 K, x2 = 0.3001	1339.7	1346.6	1350	1353	1356.1	1359.2	1362.3	1365.2	1368.1	1370.8
318.15 K, x2 = 0.4102	1312.9	1319.9	1323.3	1326.4	1329.6	1332.7	1335.9	1338.8	1341.7	1344.5
318.15 K, x2 = 0.5003	1286.7	1293.8	1297.3	1300.4	1303.6	1306.7	1309.9	1312.8	1315.7	1318.5
318.15 K, x2 = 0.6003	1251.6	1258.8	1262.2	1265.4	1268.7	1271.8	1275	1277.9	1280.8	1283.5
318.15 K, x2 = 0.7003	1207.7	1215	1218.3	1221.5	1224.8	1227.8	1231	1233.9	1236.8	1239.5
318.15 K, x2 = 0.8	1150.9	1158.4	1161.7	1164.8	1168.1	1171.1	1174.2	1177.1	1180.1	1182.9
318.15 K, x2 = 0.9	1074.5	1082	1085.2	1088.4	1091.8	1094.8	1098	1100.8	1103.7	1106.6
348.15 K, x2 = 0.1015	1351.4	1358.7	1362.3	1366	1369.4	1372.6	1375.9	1378.9	1382.1	1384.8
348.15 K, x2 = 0.201	1333.7	1341.1	1344.8	1348.5	1352	1355.3	1358.4	1361.5	1364.6	1367.5
348.15 K, x2 = 0.3001	1313	1320.5	1324.2	1328	1331.5	1334.8	1338.1	1341.2	1344.4	1347.3
348.15 K, x2 = 0.4102	1285.7	1293.4	1297.2	1301	1304.6	1308	1311.3	1314.5	1317.7	1320.7
348.15 K, x2 = 0.5003	1259.5	1267.3	1271	1274.7	1278.4	1281.8	1285.2	1288.4	1291.6	1294.6
348.15 K, x2 = 0.6003	1224.1	1232.1	1235.9	1239.6	1243.2	1246.6	1250.1	1253.3	1256.5	1259.6
348.15 K, x2 = 0.7003	1179.9	1188.1	1191.9	1195.6	1199.3	1202.6	1206.1	1209.4	1212.7	1215.8
348.15 K, x2 = 0.8	1122.6	1130.9	1134.8	1138.7	1142.5	1145.9	1149.4	1152.8	1156	1159.2
348.15 K, x2 = 0.9	1046	1054.5	1058.3	1062.2	1066	1069.5	1073	1076.5	1079.7	1083
